SMILES strings stand for the structures. Where “and” joins values, the source holds several entries; their conditions need not be identical. Equal entries are not always repeated.

These results are taken from publication PMC6933707, “Palmitoylethanolamide counteracts substance P-induced mast cell activation in vitro by stimulating diacylglycerol lipase activity” (Journal of Neuroinflammation, 2019).

Assay [1] has as its system RBL-2H3 cells. Briefly: Quantitative real-time PCR of PEA/2-AG receptors and metabolic enzymes. Format: cell-based, rat. Conditions: cells stimulated 15 min with SP 10 μM or PEA 10 μM or both, vs unstimulated. From the text:
The mRNA expression of PEA target genes (Cnr1, Cnr2, Trpv1, Ppara, and Gpr55), as well as PEA and 2-AG biosynthetic (N-acyl phosphatidylethanolamine-specific phospholipase D, Napepld, Dagla and Daglb) and catabolic enzyme genes (fatty acid amide hydrolase, Faah; N-acylethanolamine-hydrolyzing acid amidase, Naaa; and monoacylglycerol lipase, Mgl), was studied by comparison of transcriptional expression in unstimulated RBL-2H3 cells (plated on 100 mm diameter Petri dishes) vs. the expression of these targets and enzymes in RBL-2H3 cells treated with PEA (10 μM), or stimulated with SP (10 μM) in the presence and absence of PEA (10 μM), for 15 min at 37 °C in 5% CO2 atmosphere. Total RNA was purified, quantified and reverse transcribed as previously reported. For each target, all mRNA sequences were aligned and common primers were designed (Table 1). Quantitative real-time PCR was performed by an iCycler-iQ5 in a 20 μl reaction mixture using 20 ng of cDNA. Assays were performed in quadruplicate (maximum ΔCt of replicate samples < 0.5). Optimized primers for SYBR-green analysis and optimum annealing temperatures were designed by the Allele-Id software version 7.0 (Biosoft International) and were synthesized (HPLC-purification grade) by MWG-Biotech. […] Results were expressed as fold expression compared with a reference condition (2^^−∆∆ct formula).
(In general: Real-time PCR tracks product formation cycle by cycle.)

Assay [2] concerns RBL-2H3 cells. Kind of assay: LC-APCI-MS measurement of endogenous AEA, 2-AG and PEA levels. It counts as cell-based, rat. The conditions noted are these: for increase of endogenous levels of 2-AG: 15 min. On the procedure:
RBL-2H3 cells (9 × 10^5 cells/well) were stimulated with SP (10 μM) and treated with PEA (10 μM) in the presence and absence of OMDM188 (10 μM), for 15 min at 37 °C in 5% CO2 atmosphere. After 15 min, cells and supernatants were collected and homogenized in a solution of CHCl3/CH3OH/Tris-HCl 50 mM pH 7.4 (2:1:1, v/v) containing 10 pmol of [^2H]8-AEA, [^2H]5-2-AG and [^2H]4-PEA as internal standards. The lipid-containing organic phase was dried down, weighed and pre-purified by open-bed chromatography on silica gel. Fractions obtained by eluting the column with a solution of CHCl3/CH3OH (90:10 by vol.) were analyzed by Liquid Chromatography-Atmospheric Pressure Chemical Ionization-Mass Spectrometry (LC-APCI-MS) using a Shimadzu (Shimadzu, Kyoto, Japan) HPLC apparatus (LC-10ADVP) coupled to a Shimadzu (LCMS-2020) quadrupole MS via a Shimadzu APCI interface. LC-APCI-MS analyses of 2-AG and PEA were carried out in the selected ion monitoring mode, using m/z values of 356 and 348 (molecular ions + 1 for deuterated and undeuterated AEA), 384.35 and 379.35 (molecular ions + 1 for deuterated and undeuterated 2-AG), and 304 and 300 (molecular ions + 1 for deuterated and undeuterated PEA). AEA, 2-AG and PEA levels were calculated on the basis of their area ratio with the internal deuterated standard signal areas, and their amounts (pmol) were normalized per mg of lipid extract.

Assay [3] deals with human CB2 receptor (Homo sapiens, UniProt P34972). Kind of assay: cAMP Hunter functional activity assay at the CB2 receptors. It counts as cell-based. Further details: host or cells: CHO-K1. The conditions noted are these: 10 μM, highest concentration tested, CHO-K1 cells overexpressing human CB2. On the procedure: The cAMP Hunter™ eXpress G protein-coupled receptor (GPCR) assay was performed in Chinese Hamster Ovary (CHO)-Kl cells overexpressing the human CB2 receptor. Gi-coupled cAMP modulation was measured following the manufacturer’s protocol (DiscoverX, Fremont, CA). CHO-K1 cells overexpressing the human CB2 receptor were plated into a 96-well plate (3× 10^4 cells/well) and incubated overnight at 37 °C in 5% CO2 atmosphere. The media were aspirated and replaced with 30 μl of assay buffer. Cells were incubated 30 min at 37 °C with 15 μl of 3× concentration-response solutions of 2-AG (0.01–50 μM), or PEA (10 μM), prepared in presence of cell assay buffer containing a 3× of 25 μM NKH-477 solution (a water-soluble analog of Forskolin) to stimulate adenylate cyclase and enhance basal cAMP levels. We also investigated the effect of PEA on 2-AG receptor activation by co-incubation. Therefore, cells were also incubated 30 min at 37 °C with 2-AG and PEA (10 μM) in the presence of NKH-477 to stimulate adenylate cyclase and enhance cAMP levels. […] Relative luminescence units (RLU) were measured by using a GloMax Multi Detection System (Promega Italia). […] The percentage of response was calculated by using the following formula: % RESPONSE = 100% × (1-(RLU of test compound-RLU of NKH-477 positive control)/(RLU of vehicle-RLU of NKH-477 positive control).
Chain of human CB2 receptor (P34972 whole entry): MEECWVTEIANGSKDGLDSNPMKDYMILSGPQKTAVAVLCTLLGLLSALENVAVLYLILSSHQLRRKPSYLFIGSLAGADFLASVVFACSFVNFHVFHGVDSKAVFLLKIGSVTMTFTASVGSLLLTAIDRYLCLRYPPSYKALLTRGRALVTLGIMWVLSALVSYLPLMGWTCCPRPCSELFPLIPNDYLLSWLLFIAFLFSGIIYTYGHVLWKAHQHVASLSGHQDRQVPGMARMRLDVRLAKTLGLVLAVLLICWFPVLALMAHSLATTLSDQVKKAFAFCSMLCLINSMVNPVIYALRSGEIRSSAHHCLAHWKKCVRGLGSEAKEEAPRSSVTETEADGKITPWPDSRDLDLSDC

On to `CCCCCCCCCCCCCCCC(=O)NCCO` [PEA, Palmitoylethanolamide], for which the “mRNA expression of Cnr2, Napepld, Naaa, Daglb, Faah and Mgl” value in assay [1] is on record as “no statistically significant change”. The “increase of endogenous levels of 2-AG” value in assay [2] (PEA 10 μM alone, in the absence of SP, compared to vehicle-treated cells) was 1.8 fold and ~ 2 fold; in assay [2] (SP-stimulated cells treated with PEA 10 μM, compared to SP-stimulated cells treated with PEA vehicle) it was 1.6 fold and ~ 2 fold; in assay [2] (SP-stimulated cells treated with PEA 10 μM, compared to cells only treated with vehicle), 1.4 fold. The “estimated increase of 2-AG concentration in cells” value in assay [2] (SP-stimulated cells treated with PEA 10 μM vs unstimulated cells) is 0.5 µM. In addition, the “endogenous levels of AEA” value is given as “no statistically significant increase” in assay [2] (SP-stimulated cells treated with PEA 10 μM, vs SP + PEA vehicle) and “statistically significant increase” in assay [2] (unstimulated cells treated with PEA alone 10 μM, vs vehicle). Further, in assay [2] (SP-stimulated cells treated with PEA 10 μM, estimated from 1 mg lipids per 10 mg (10 μl) cell pellet, 0.7 μM in unstimulated cells), the “estimated concentration of 2-AG in cells” value was “about 1.2 μM”. Besides, the “increase of levels of AEA” value in assay [2] (unstimulated cells following PEA treatment (discussion)) is listed as ~ 2 fold. Moreover, the “effect on NKH-477-induced cAMP levels (CB2 activation)” value in assay [3] was “failed at decreasing cAMP levels”.
